Test results: US20130310440A1, “METHOD FOR TREATING NON-SMALL CELL LUNG CANCER” (TEVA PHARMACEUTICAL INDUSTRIES LTD., priority 2012, published 2013)
Where two headings read alike, the source gives them in different places. In the oligonucleotide strings, read from the 5' end, every base follows the letter of its sugar. An asterisk marks phosphorothioate; unmarked linkages are phosphodiester. Other units and linkages are bracketed, terminal groups are in braces. A string of capitals states the bases alone. e = 2'-O-(2-methoxyethyl) (MOE); [5mC] = 5-methylcytosine; d = 2'-deoxy (DNA)

Key:
NSCLC = details: patients treated with docetaxel in the 2nd line setting; cited from earlier work
[1] = cited from earlier work
CYP3A4 = CYP3A4 (Homo sapiens, UniProt P08684); details: cited from earlier work
[2] = human, in vivo; cited from earlier work
[3] = system: Stage IV Non-Squamous Non-Small Cell Lung Cancer; assay: Phase III study: paclitaxel/carboplatin with or without custirsen (Examples 1 and 2); assay type: in vivo, human
From the text: Subjects randomized to the custirsen arm first receive three doses of custirsen in a 5 to 9 day loading dose period prior to Day 1 of Cycle 1. Subjects randomized to both study arms have 21-day chemotherapy cycles until disease progression, unacceptable toxicity, or completion of 6 cycles; however, subjects randomized to the custirsen arm also receive weekly doses of custirsen starting at Day 1 of each of the 21-day chemotherapy cycles until disease progression, unacceptable toxicity, or completion of all 6 cycles.
This is a randomized, open-label, sponsor-blinded multinational trial. Treatment consists of paclitaxel/carboplatin/custirsen vs. paclitaxel/carboplatin, which compose the two arms of the study.
After a screening period of up to 28 days, subjects are randomly assigned with equal probability to the two arms. Stratified randomization is used in order to minimize between-arm imbalance over four stratification factors: Gender, Eastern Cooperative Oncology Group (ECOG) performance status (0 vs. 1), Smoking status (former/current smoker vs. never-smoker) and Geographical Region (North America, Europe and Southeast Asia).
Subjects randomized to the custirsen arm have a 5 to 9 day loading dose period prior to Day 1 of Cycle 1. […] Subjects who are removed from study treatment for any reason other than disease progression or death are followed for documented disease progression. Once disease progression is documented, subjects enter a survival follow-up phase during which data is collected regarding further cancer treatment and their survival status.
Tumor response to study treatment and disease progression is based on the criteria proposed by the Response Evaluation Criteria in Solid Tumors (RECIST) 1.1 guidelines. All subjects undergo CT or MRI scans of the chest and upper abdomen, as well as any other areas clinically indicated, at screening, then every 6 weeks, starting at week 8 for the first 26 weeks (week 8, 14, 20 and 26) and then every 12 weeks after the week 26 scan until disease progression. These time points are kept within a window of +one week, regardless of the treatment schedule. The week 26 scan is performed as scheduled, regardless of whether the patient is still in the treatment period (i.e. due to treatment delays) or has already completed the end of treatment visit. Once a patient is discontinued from study treatment for documented disease progression, scanning is no longer required. Assessment of these scans is carried out in a blinded fashion, by a Central Imaging Lab.
Adverse events are recorded at each visit during the study and 28 days after the last dose of study treatment. Medical history is assessed at screening and an electrocardiogram is performed. Physical examination, assessment of the ECOG performance status, vital signs and laboratory evaluations are conducted at screening and throughout the study. Adverse events are recorded from when a subject is signed the Informed Consent Form and throughout the study, until the end of the treatment visit (28 days following last dose). They are reviewed and updated at each subsequent visit and during any phone contact with the subject.
The general health status, as reported by the subjects is assessed by the EuroQoL (EQ-5D) and FACT-L questionnaires. Medical resource utilization is also compared between the treatment arms. The EQ-5D is a standardized instrument for use as a measure of health outcome. Applicable to a wide range of health conditions and treatments, it provides a simple descriptive profile and a single index value for health status that can be used in the clinical and economic evaluation of health care as well as population health surveys. EQ-5D is designed for self-completion by subjects. In this study the instrument is self-administrated.
640 mg in 250 mL normal saline IV over 2 hours.
Carboplatin AUC 6.0 mg/ml/min IV over 30 minutes.
The primary outcome measure is overall survival (OS). […]

stage IIIB or IV NSCLC = assay: Phase 1-2 study of weekly custirsen plus a gemcitabine/platinum-based regimen: survival by serum clusterin; assay type: in vivo, human; details: for median survival time: plus gemcitabine/platinum
Protocol: The relationship between serum clusterin levels and the duration of individual survival was evaluated during a phase 1-2 study of weekly custirsen plus a gemcitabine/platinum-based regimen in patients with stage IIIB or IV NSCLC. Not all of the patients in this study had baseline levels of clusterin measured. However, starting with N=69 subjects with measured baseline clusterin levels, fitting the Cox proportional hazards (PH) model with baseline clusterin as sole predictor gives p=0.10; the coefficient is positive, so that higher clusterin is associated with increased survival risk. Among the N=55 subjects who also had post-baseline data collected, fitting the same PH model gives p=0.05, again with positive coefficient.
A careful search for possible cutpoints, using all N=69 subjects with baseline clusterin levels, produced 71 μg/mL as a strong candidate.
Among all N=69 subjects with a baseline clusterin level, there were […] with clusterin ≦71 μg/mL (median survival time was 18.8 months), and N=26 subjects with baseline clusterin >71 μg/mL (median survival time was 10.2 months); the log-rank p-value=0.004. Removing the N=14 early discontinuers leaves N=35 subjects with baseline clusterin ≦71 μg/mL (median survival time was 28.7 months), and N=20 subjects with baseline clusterin >71 μg/mL (median survival time was 12.2 months); the log-rank p-value=0.0002.
To further assess the relevance of baseline clusterin as a predictor of survival, data from the study were further segregated based on average and minimum clusterin levels achieved during treatment.

[4] = system: Advanced or Metastatic (Stage IV) Non Small Cell Lung Cancer; assay: Phase III study: custirsen plus docetaxel versus docetaxel, second line (Example 3); assay type: in vivo, human
From the text: A Multinational, Randomized, Open-Label Phase III Study of Custirsen (TV-1011/OGX-011) In Combination With Docetaxel Versus Docetaxel As A Second-Line Treatment In Patients with Advanced or Metastatic (Stage IV) Non Small Cell Lung Cancer.
Patients randomized to the custirsen arm (Arm A) have 3 doses of custirsen administered in a 5 to 9 day Loading Dose Period prior to Day 1 of Cycle 1. Patients in Arm A receive custirsen on Days 1, 8 and 15, and docetaxel on Day 1 of the 21-day cycles. Patients in Arm B receive only docetaxel on Day 1 of the 21-day cycles. Patients randomized to both arms have 21-day chemotherapy cycles until disease progression, unacceptable toxicity, withdrawal of consent or protocol specified parameters to stop treatment.
After a screening period of up to 28 days, patients are randomized 1:1 to receive either docetaxel and custirsen (Arm A) or docetaxel (Arm B). Randomization is stratified by gender (male vs. female), NSCLC histology (squamous vs. non-squamous), best overall response to the first-line platinum-based therapy (SD/CR/PR vs. PD) and ECOG PS (0 vs. 1) to minimize imbalance at randomization. Patients randomized to Arm A receive 3 doses of custirsen administered in a 5 to 9 day Loading Dose Period prior to Day 1 of Cycle 1. Following the Loading Dose period, patients in Arm A receive custirsen on Days 1, 8 and 15, and docetaxel on Day 1 of the 21-day cycle. Patients in Arm B receive only docetaxel on Day 1 of the 21-day cycle. Patients randomized to both study arms have 21-day chemotherapy cycles until disease progression, unacceptable toxicity, withdrawal from study treatment, or protocol specified parameters to stop treatment. Patients who are removed from study treatment for any reason other than disease progression or death are followed for documented radiological disease progression. All patients who discontinued study treatment are followed to collect further anticancer treatment and survival information until death, loss to follow-up, withdrawal of consent, or up to 12 months after the end of treatment visit for the last patient on the study, whichever comes first.
Tumor response to study treatment and disease progression are based on the criteria proposed by the Response Evaluation Criteria in Solid Tumors (RECIST) guideline (version 1.1). All patients undergo CT or MRI scans of the chest and upper abdomen, as well as any other areas clinically indicated, at screening, then every 6 weeks, starting at week 8 after randomization until disease progression. Tumor measurement is also performed during the end of treatment visit if it is not done within the previous 6 weeks. Patients who discontinue study treatment for reasons other than disease progression continue to have tumor measurements per RECIST v1.1 until disease progression, start of new anticancer therapy, withdrawal of consent, lost to follow-up, or death, whichever occurs first. Assessment of these scans is carried out in a blinded fashion, by a Central Imaging Lab designated by the Sponsor.
Adverse events and concomitant medications are collected throughout the study up to 28 days after the last dose of study treatment. Medical history is assessed, documented results of EGFR and KRAS mutation status are collected, if available, and an electrocardiogram is performed at screening. Physical examination, assessment of the ECOG Performance Status, vital signs, and laboratory evaluations are conducted at screening and throughout the study.
The general health status, as reported by the patients, are assessed by the Functional Assessment of Cancer Therapy-Lung (FACT-L) questionnaire.
Study Agent: Three loading doses of custirsen 640 mg IV over 2 hours administered in 5 to 9 days prior to Day 1 of Cycle 1, then custirsen 640 mg IV over 2 hours on Days 1, 8 and 15 of a 21-day cycle.
Chemotherapy: Docetaxel 75 mg/m^2 IV over 1 hour on Day 1 of a 21-day cycle. […]

[5] = in vivo
Protocol: Three doses of 640 mg custirsen are administered IV during the Loading Dose Period (Days −9 to −1). There is at least one “non-infusion” day between each administration of custirsen (i.e. every other day) during the Loading Dose Period and between the third loading dose of custirsen and Day 1 of Cycle 1. The day prior to Day 1 of Cycle 1 (Day 0) is a “no treatment” day. There are no more than 4 days between the last loading dose and Day 1 of Cycle 1. A common schedule is to give the three loading doses of custirsen on Monday, Wednesday and Friday with Day 1, Cycle 1 starting on the following Monday. Up to nine days are allowed for completing the three loading doses prior to Day 0 to account for clinic visits, weekends, and holidays. Subjects receive each dose of custirsen as a 2 hour infusion.

clusterin = details: cited from earlier work
[6] = system: cancerous human prostate, breast, ovarian, lung, renal, bladder, and melanoma cells; details: cited from earlier work

Chain of CYP3A4 (P08684 whole entry): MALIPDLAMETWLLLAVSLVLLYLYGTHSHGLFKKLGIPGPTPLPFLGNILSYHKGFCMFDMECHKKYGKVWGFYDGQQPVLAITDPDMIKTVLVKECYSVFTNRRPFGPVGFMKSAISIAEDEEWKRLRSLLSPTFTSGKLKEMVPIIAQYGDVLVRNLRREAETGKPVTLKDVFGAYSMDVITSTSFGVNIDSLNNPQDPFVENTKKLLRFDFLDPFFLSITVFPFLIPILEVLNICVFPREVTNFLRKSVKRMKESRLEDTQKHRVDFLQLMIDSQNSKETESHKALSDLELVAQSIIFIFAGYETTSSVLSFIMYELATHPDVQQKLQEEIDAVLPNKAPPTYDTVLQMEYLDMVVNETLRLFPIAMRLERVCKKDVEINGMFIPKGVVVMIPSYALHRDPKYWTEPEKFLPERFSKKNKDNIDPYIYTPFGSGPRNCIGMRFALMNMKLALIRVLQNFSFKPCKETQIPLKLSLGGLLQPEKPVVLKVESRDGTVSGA

In the case of `CC(=O)O[C@@]12CO[C@@H]1C[C@H](O)[C@@]1(C)C(=O)[C@H](O)C3=C(C)[C@@H](OC(=O)[C@H](O)[C@@H](NC(=O)OC(C)(C)C)c4ccccc4)C[C@@](O)([C@@H](OC(=O)c4ccccc4)[C@H]21)C3(C)C` [Docetaxel], the “median PFS” value (NSCLC) is given as “about 3 months”, the “grade 4 neutropenia (<500 cells/mm^3), patients affected” value ([1]; 60 mg/m^2) is given as 75% and the “grade 4 neutropenia (<500 cells/mm^3), patients affected” value ([1]; 100 mg/m^2) is given as 85%. For the same compound, the “Neutropenia (<2,000 neutrophils/mm3), patients affected” value ([1]; 60-100 mg/m^2) was “virtually all patients”, the “incidence of treatment-related mortality” value ([1]; abnormal liver function, higher doses, or NSCLC with prior platinum-based chemotherapy, single agent 100 mg/m^2) was “increased” and the “most common side effects” value ([1]; human, in vivo) was “infections, neutropenia, anemia, febrile neutropenia, hypersensitivity, thrombocytopenia, neuropathy, dysgeusia, dyspnea, constipation, anorexia, nail disorders, fluid retention, asthenia, pain, nausea, diarrhea, vomiting, mucositis, alopecia, skin reactions and myalgia”. For the same compound, the CYP3A4 substrate status (CYP3A4) was “CYP3A4 substrate”.

In the case of `N.N.O=C([O-])C1(C(=O)[O-])CCC1.[Pt+2]` [carboplatin, Carboplatin], the major dose-limiting toxicity [2] is listed as “Bone marrow suppression”.

In the case of “custirsen: anti-clusterin antisense oligonucleotide CAGCAGCAGAGTCTTCATCAT (Seq. ID No.: 1), phosphorothioate backbone, 2′-O-methoxyethyl at nucleotides 1-4 and 18-21, 5-methylcytosines at 1, 4, 19 (antisense e[5mC]*eA*eG*e[5mC]*dA*dG*dC*dA*dG*dA*dG*dT*dC*dT*dT*dC*dA*eT*e[5mC]*eA*eT; listed as Homo sapiens)”, the overall survival ([3]; Arm A (custirsen+paclitaxel/carboplatin) compared to Arm B (paclitaxel/carboplatin)) is reported as “prolonged survival”, the progression free survival ([3]; Arm A compared to Arm B) is reported as “increased” and the “proportion of subjects surviving free of progression for at least 14 weeks” value ([3]; Arm A compared to Arm B) is reported as “statistically significant higher proportion”. The quality of life ([3]; Arm A compared to Arm B) was “improves”, the “symptoms of NSCLC (chest pain, pleural effusions, pulmonary edema, dyspnea, hemoptysis)” value ([3]; Arm A compared to Arm B) was “occasionally improve” and the “survival by baseline serum clusterin” value ([3]; Arm A patients, baseline clusterin below 71 μg/mL versus above 71 μg/mL) was “tend to survive longer”. For the same compound, the safety and tolerability ([3]; custirsen 640 mg IV + paclitaxel/carboplatin (Arm A)) was “safe and well tolerated”, the “probability of extended survival by baseline and on-treatment clusterin” value (stage IIIB or IV NSCLC; low baseline clusterin (71 μg/mL cutpoint) and low levels during therapy (33 μg/mL average or 30 μg/mL minimum cutpoint)) was “greatest probability of extended survival” and the median survival time (stage IIIB or IV NSCLC; all subjects with baseline clusterin level, clusterin >71 μg/mL (N=26)) was 10.2 months. The median survival time (stage IIIB or IV NSCLC; all subjects with baseline clusterin level, clusterin ≦71 μg/mL (N=45)) was 18.8 months, the median survival time (stage IIIB or IV NSCLC; early discontinuers removed, baseline clusterin >71 μg/mL (N=20)) was 12.2 months and the median survival time (stage IIIB or IV NSCLC; early discontinuers removed, baseline clusterin ≦71 μg/mL (N=35)) was 28.7 months. For the same compound, the overall survival ([4]; Arm A (custirsen+docetaxel) compared to Arm B (docetaxel)) was “prolonged survival”, the progression free survival ([4]; Arm A compared to Arm B) was “increased” and the “proportion of subjects surviving free of progression for at least 14 weeks” value ([4]; Arm A compared to Arm B) was “statistically significant higher proportion”. For the same compound, the quality of life ([4]; Arm A compared to Arm B) was “improves”, the “symptoms of NSCLC (chest pain, pleural effusions, pulmonary edema, dyspnea, hemoptysis)” value ([4]; Arm A compared to Arm B) was “occasionally improve” and the safety and tolerability ([4]; custirsen 640 mg IV + docetaxel 75 mg/m^2 (Arm A)) was “safe and well tolerated”. The “grade 1-2 constitutional symptoms (e.g., fever and chills), subjects affected” value [5] was 50-60%, the expression of clusterin (clusterin) was “potently reduces the expression of clusterin” and the apoptosis [6] was “facilitates apoptosis”. For the same compound, the “sensitization of cancer cells to chemotherapy” value [6] was “sensitizes”.
